Target: T1, human ST6Gal-I (Homo sapiens, UniProt P15907)
T1 sequence (P15907 1-406): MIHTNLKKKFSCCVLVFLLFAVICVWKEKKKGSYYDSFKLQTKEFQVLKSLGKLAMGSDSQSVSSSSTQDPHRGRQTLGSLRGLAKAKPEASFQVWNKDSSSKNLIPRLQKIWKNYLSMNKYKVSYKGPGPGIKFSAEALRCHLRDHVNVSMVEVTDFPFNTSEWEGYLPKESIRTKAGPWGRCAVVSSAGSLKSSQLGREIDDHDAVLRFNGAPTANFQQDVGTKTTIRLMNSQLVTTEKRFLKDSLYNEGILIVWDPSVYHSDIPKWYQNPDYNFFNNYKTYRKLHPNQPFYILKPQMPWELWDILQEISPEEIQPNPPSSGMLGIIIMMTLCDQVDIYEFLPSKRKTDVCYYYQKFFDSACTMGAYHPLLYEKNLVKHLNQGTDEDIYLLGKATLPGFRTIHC
Assay: sialyltransferase kinetics, donor varied
Format: biochemical
Settings: read-out: ST6Gal-I / KM(app); acceptor LacNAc-butyl (11), fixed concentration

Km: 86 ± 21 µM
Substance: CMP-Neu9NSydCl [compound 9]

— publication PMC6450558 (Angewandte Chemie (International ed. in English), 2019)
